Data from patent US10407396B2, “Crystalline form of selexipag” (Apotex Inc., priority 2017, dated 2019).

Legend:
[1] = drug substance in UPTRAVI, per AusPAR, cited from earlier work
[2] = PXRD study of crystal form stability on storage; assay type: physicochemical; conditions: sealed vial under nitrogen atmosphere, room temperature and ambient humidity
Description: Selexipag Form APO-I can be characterized by a PXRD diffractogram comprising, among other peaks, characteristic peaks, expressed in degrees 2θ (±0.2°), at 7.5°, 12.4° and 21.7°. Preferably, the PXRD diffractogram further comprises at least three peaks, expressed in degrees 2θ (±0.2°), selected from the group consisting of 9.4°, 11.6°, 14.1°, 15.1°, 16.7°, 17.2°, 18.3°, 19.9°, 22.3° and 23.6°. More preferably, the PXRD diffractogram further comprises peaks, expressed in degrees 2θ (±0.2°), at 9.4°, 11.6°, 14.1°, 15.1°, 16.7°, 17.2°, 18.3°, 19.9°, 22.3° and 23.6°. PXRD studies of samples of Selexipag Form APO-I maintained under a nitrogen atmosphere in a sealed vial have shown that this crystal form is stable following storage at room temperature and ambient humidity for at least 14 days. PXRD diffractograms were recorded on a Bruker D8 Discover powder X-ray diffractometer (Bruker-AXS, Karlsruhe, Germany). The generator was a Micro-focus X-ray source (IMSTube: Cu tube with 1.54184 Å) with a voltage of 50 kV and current of 1.00 mA, using a divergence slit of 0.3 mm and collimator of 0.3 mm. For each sample, one frame was collected using a still scan with a Pilatus 3R-100 kA detector at the distance of 154.72 mm from the sample. Raw data were evaluated using the program EVA (Bruker-AXS, Karlsruhe, Germany).

Row | crystal form stable following storage (PXRD) [2] | SMILES | Biopharmaceutics Classification System (BCS) class ([1]; Class II = high permeability but low solubility) | solubility behaviour [1]
1 |  | CC(C)N(CCCCOCC(=O)NS(C)(=O)=O)c1cnc(-c2ccccc2)c(-c2ccccc2)n1 [Form I, 2-{4-[N-(5,6-diphenylpyrazin-2-yl)-N-isopropylamino]butyloxy}-N-(methylsulfonyl)acetamide] | Class II | pH dependent solubility
2 | at least 14 days | CC(C)N(CCCCOCC(=O)NS(C)(=O)=O)c1cnc(-c2ccccc2)c(-c2ccccc2)n1 [Selexipag Form APO-I, 2-{4-[N-(5,6-diphenylpyrazin-2-yl)-N-isopropylamino]butyloxy}-N-(methylsulfonyl)acetamide] |  | 
